Columns and labels:
[1] = target: T1, Ba/F3 KIF5B-RET cells (Homo sapiens, UniProt P07949); test: Inhibition of proliferation of Ba/F3 KIF5B-RET cells (CellTiter-Glo); format: cell-based; conditions: 72 to 144 hours
T1 construct: fused on or other part: P33176 (Kinesin-1 heavy chain)
Experimental: When Ba/F3 KIF5B-RET cells were cultured to the appropriate cell density, cells were collected, and the cells were adjusted to the appropriate cell concentration using complete medium, and the cell suspension was spread in a 96-well plate, 90 μL per well, and placed in the wall of a 37° C., 5% CO2 incubator overnight; compound solutions of different concentrations were prepared using DMSO and culture medium; a solvent control was set, and the compound solution was added to a 96-well plate with […] at 37° C. in a 5% CO2 incubator for 72 to 144 hours, CellTiter-Glo solution was added thereto and mixed well by shaking, incubated for 10 minutes in the dark, and read by BioTek Synergy H1 microplate reader.
The IC50 values were obtained by using the luminescence signal values to calculate the inhibition rate, the concentrations and the inhibition rates were fitted to a nonlinear regression curve using Graphpad Prism software.

[2] = target: T2, KDR kinase (Homo sapiens, UniProt P35968); test: HTRF kinase activity inhibition, KDR; format: biochemical; conditions: for IC50: HTRF, ATP at Km; for Ratio (KDR/RET): KDR IC50 / RET IC50
T2 construct: purchased Carna 08-191
From the text: 2.2 Experimental Reagents: • KDR kinase was purchased from Carna Company, and the article number was 08-191; • HTRF KinEASE-TK kit was purchased from Cisbio Company, and the article number was 62TK0PEC; • ATP was purchased from Thermofisher Company, and the article number was PV3227; • 384-well plate was purchased from PerkinElmer Company, and the article number was 6007290.
In this experiment, the homogeneous time-resolved fluorescence (HTRF) method was used for the detection of compounds on KDR kinase activity.

[3] = test system: TT cells (MTC, RET C634W); test: Inhibition of proliferation of TT cells (CellTiter-Glo, 72 h); format: cell-based; conditions: Homo sapiens
Experimental: TT cells were purchased from the cell bank of the Chinese Academy of Sciences.
When TT cells were cultured to the appropriate fusion level, TT cells were collected, and the cells were adjusted to the appropriate cell concentration using complete medium, and the cell suspension was spread in a 96-well plate, 90 μL per well, and placed to the wall of a 37° C., 5% CO2 incubator overnight; and compound solutions of different concentrations were prepared using DMSO and culture medium; and a solvent control was set, the compound solution was added to a 96-well plate, 10 μL per well, and placed to the wall of a 37° C., 5% CO2 incubator for 72 hours; CellTiter-Glo solution was added thereto and the mixture was mixed well by shaking, incubated for 10 minutes in the dark, and read by BioTek Synergy H1 microplate reader.
The IC50 values were obtained by using luminescence signal values to calculate the inhibition rate, the concentration and the inhibition rate were fitted to a nonlinear regression curve using Graphpad Prism software.

[4] = target: T3, RET kinase (Homo sapiens, UniProt P07949); test: HTRF kinase activity inhibition, RET wild-type; format: biochemical; conditions: ATP at Km
T3 construct: purchased Carna 08-159
From the text: 2.2 Experimental Reagents: • RET enzyme was purchased from Carna Company, and the article number was 08-159; • RET M918T enzyme was purchased from Carna Company, and the article number was 08-508; • KIF5B-RET was purchased from SignalChem Company, the article number was R02-19FG-05; • CCDC6-RET was purchased from SignalChem Company, the article number was R02-19BG-05; • RET V804M enzyme was purchased from Thermofisher Company, and the article number was PV6223; • RET V804L enzyme was purchased from Thermofisher Company, and the article number was PV4397; • HTRF KinEASE-TK kit was purchased from Cisbio Company, and the article number was 62TK0PEC; • ATP was purchased from Thermofisher Company, and the article number was PV3227; • 384-well plate was purchased from PerkinElmer Company, and the article number was 6007290.
In this experiment, a homogeneous time-resolved fluorescence (HTRF) method was used for the detection of compounds on RET kinase activity.

[5] = Balb/C mouse pharmacokinetics, oral 5 mg/kg; format: in vivo, Balb/C mice; conditions: male, p.o. 5 mg/kg, plasma
Experimental: The pharmacokinetic behavior of the following compound embodiments, administered orally at a dose of 5 mg/kg in plasma in mice, was studied using Balb/C mice as test animals.
Balb/C Mouse 6/embodiment, male, Shanghai Jiesijie Laboratory Animal Co., Ltd, Animal Production License No. (SCXK (Shanghai) 2013-0006 N0.311620400001794).
Balb/C mice, males; p.o. after overnight fasting, respectively, at a dose of 5 mg/kg, administered in a volume of 10 mL/kg.
0.5% CMC-Na (1% Tween80) was dissolved by ultrasound, and prepared into clear solution or uniform suspension.
Before and after administration, 0.1 mL of blood was collected from mice at 0, 0.5, 1, 2, 4, 6, 8 and 24 hours by orbital collection, placed in EDTA-K2 tubes, centrifuged at 6000 rpm at 4° C. for 6 minutes to separate plasma, and stored at −80° C.
2.5 Sample Handling: • 1) 40 μL of plasma sample was precipitated by adding 160 μL of acetonitrile, mixed and centrifuged at 3500×g for 5-20 minutes. • 2) 100 μL of the supernatant solution after treatment was taken to analyze the concentration of the test compound by LC/MS/MS.
2.6 Liquid Phase Analysis • Liquid phase conditions: Shimadzu LC-20AD pump • Mass spectrometry conditions: AB Sciex API 4000 mass spectrometer • Chromatographic column: phenomenex Gemiu 5 μM C18 50×4.6 mm • Mobile phase: Liquid A was 0.1% formic acid aqueous solution, liquid B was acetonitrile • Flow rate: 0.8 mL/min • Elution time: 0-4.0 minutes, the eluent was as follows:
The main pharmacokinetic parameters were calculated by WinNonlin 6.1 and the results of the mouse pharmacokinetic experiments were shown in Table 13 below.

T3 sequence (P07949 29-1114): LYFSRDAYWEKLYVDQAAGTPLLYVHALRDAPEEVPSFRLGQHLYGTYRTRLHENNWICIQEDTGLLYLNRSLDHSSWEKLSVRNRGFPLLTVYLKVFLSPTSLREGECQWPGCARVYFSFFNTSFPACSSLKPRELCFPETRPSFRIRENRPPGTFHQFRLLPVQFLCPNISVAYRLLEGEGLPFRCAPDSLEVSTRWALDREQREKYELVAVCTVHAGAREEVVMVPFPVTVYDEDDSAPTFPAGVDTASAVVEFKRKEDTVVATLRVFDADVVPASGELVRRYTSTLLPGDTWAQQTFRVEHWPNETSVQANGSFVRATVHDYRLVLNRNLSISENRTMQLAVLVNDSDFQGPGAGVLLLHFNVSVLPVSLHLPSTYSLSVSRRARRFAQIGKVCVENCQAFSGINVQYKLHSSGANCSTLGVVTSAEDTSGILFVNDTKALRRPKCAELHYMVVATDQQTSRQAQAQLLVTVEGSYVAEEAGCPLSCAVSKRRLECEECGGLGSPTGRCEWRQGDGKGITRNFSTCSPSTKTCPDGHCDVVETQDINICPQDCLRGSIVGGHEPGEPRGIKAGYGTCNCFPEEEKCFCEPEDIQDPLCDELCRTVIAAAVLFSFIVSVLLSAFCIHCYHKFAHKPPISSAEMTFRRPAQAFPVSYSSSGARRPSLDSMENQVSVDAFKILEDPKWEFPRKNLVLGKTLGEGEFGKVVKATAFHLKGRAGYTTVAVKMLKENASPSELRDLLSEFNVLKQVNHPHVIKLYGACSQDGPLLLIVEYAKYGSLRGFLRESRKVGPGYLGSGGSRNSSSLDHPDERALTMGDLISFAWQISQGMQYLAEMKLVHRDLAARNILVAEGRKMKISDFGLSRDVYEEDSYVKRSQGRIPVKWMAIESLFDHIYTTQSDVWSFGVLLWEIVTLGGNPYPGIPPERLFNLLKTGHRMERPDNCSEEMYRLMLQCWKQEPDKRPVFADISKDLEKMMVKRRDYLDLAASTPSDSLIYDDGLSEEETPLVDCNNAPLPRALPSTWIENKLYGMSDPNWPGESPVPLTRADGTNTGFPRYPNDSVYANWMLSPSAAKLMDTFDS
T1 sequence (P07949 whole entry, change not shown, the tested form may be a part): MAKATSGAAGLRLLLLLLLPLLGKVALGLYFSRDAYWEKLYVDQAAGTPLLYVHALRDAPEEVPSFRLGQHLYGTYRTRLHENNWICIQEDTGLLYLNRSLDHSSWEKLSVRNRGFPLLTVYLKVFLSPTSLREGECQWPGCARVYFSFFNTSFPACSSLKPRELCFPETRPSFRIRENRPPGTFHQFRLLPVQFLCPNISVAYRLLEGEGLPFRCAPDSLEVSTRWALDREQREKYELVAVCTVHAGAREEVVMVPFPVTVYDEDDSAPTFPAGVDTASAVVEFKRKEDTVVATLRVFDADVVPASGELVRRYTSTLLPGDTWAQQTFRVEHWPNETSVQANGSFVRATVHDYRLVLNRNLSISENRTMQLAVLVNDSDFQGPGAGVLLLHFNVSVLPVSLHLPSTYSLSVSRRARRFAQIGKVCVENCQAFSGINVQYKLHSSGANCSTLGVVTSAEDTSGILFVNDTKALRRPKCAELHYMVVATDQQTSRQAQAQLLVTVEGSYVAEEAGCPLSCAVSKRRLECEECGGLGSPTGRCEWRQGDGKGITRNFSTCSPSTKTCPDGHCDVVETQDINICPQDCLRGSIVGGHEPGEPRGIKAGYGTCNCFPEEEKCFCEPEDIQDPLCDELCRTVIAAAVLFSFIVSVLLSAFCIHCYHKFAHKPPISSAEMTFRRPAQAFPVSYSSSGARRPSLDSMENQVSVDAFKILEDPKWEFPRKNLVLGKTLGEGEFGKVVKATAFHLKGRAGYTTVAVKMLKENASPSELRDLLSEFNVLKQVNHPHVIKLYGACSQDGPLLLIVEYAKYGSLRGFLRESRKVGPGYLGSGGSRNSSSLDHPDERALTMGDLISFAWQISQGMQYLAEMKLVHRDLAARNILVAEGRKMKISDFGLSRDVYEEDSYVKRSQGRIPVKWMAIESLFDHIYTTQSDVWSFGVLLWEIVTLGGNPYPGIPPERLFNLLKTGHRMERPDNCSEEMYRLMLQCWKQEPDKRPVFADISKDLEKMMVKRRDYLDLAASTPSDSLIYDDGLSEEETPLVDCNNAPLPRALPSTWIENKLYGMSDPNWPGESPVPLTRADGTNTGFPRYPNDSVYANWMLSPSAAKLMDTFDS
T2 sequence (P35968 20-1356): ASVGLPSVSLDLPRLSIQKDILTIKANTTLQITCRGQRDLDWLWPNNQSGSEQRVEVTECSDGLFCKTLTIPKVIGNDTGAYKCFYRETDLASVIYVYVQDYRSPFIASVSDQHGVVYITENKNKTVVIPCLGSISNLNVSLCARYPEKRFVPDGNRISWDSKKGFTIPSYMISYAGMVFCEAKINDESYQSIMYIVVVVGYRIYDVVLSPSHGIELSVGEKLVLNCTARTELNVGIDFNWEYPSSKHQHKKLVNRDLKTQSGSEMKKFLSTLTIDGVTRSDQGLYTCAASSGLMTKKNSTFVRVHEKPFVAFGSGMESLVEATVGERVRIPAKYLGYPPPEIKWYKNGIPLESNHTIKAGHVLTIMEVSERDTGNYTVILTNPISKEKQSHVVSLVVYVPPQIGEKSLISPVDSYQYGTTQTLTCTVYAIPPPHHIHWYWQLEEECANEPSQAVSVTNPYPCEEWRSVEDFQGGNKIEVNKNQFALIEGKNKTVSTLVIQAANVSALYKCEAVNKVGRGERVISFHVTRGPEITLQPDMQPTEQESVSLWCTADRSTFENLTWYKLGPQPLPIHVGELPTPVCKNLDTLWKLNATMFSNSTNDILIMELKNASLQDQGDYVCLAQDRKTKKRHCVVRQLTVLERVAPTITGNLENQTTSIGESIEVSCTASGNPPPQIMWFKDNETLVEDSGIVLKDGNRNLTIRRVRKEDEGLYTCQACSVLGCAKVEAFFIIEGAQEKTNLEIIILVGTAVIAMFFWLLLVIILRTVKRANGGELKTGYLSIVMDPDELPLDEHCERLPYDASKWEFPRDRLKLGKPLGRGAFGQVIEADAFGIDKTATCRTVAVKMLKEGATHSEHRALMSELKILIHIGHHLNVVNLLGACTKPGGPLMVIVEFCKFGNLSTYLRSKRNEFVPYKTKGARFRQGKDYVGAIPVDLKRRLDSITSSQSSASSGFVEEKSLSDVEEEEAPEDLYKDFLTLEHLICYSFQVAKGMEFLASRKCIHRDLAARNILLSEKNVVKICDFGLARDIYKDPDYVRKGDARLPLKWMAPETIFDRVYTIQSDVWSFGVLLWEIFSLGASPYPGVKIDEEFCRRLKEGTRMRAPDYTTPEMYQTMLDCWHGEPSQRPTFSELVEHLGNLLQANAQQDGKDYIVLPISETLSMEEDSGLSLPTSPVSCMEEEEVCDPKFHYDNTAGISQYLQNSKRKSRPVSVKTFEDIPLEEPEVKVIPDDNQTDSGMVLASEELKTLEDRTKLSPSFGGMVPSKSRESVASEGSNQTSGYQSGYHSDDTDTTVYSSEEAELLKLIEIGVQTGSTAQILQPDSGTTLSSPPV

| Compound | IC50 [1] | IC50 [2] | Ratio (KDR/RET) [2] | IC50 [3] | IC50 [4] | MRT ([5]; read-out: Average residence time MRT) | Cmax ([5]; read-out: Blood concentration Cmax) | AUC(0-t) ([5]; read-out: Curve area AUC0-t) | AUC(0-inf) ([5]; read-out: Curve area AUC0-∞) | half-life ([5]; read-out: Half-life t1/2 (converted)) | Tmax ([5]; read-out: Peak time tmax) |
| --- | --- | --- | --- | --- | --- | --- | --- | --- | --- | --- | --- |
| COc1ccc(CN2C3CC2CN(c2ccc(-c4cc(C#CC(O)C5CC5)cn5ncc(C#N)c45)cn2)C3)cn1 (centres unmarked) [Embodiment 19, 6-(3-Cyclopropyl-3-hydroxyprop-1-yn-1-yl)-4-(6-(6-((6-methoxypyridin-3-yl)methyl)-3,6-diazabicyclo[3.1.1]heptan-3-yl)pyridin-3-yl)pyrazolo[1,5-a]pyridine-3-carbonitrile] | 27.8 nM | – | – | – | – | – | – | – | – | – | – |
| COc1ccc(CN2C3CC2CN(c2ccc(-c4cc(C#C[C@H](C)O)cn5ncc(C#N)c45)cn2)C3)cn1 [Embodiment 21, 6-((S)-3-Hydroxybut-1-yn-1-yl)-4-(6-(6-((6-methoxypyridin-3-yl)methyl)-3,6-diazabicyclo[3.1.1]heptan-3-yl)pyridin-3-yl)pyrazolo[1,5-a]pyridine-3-carbonitrile] | – | 9.4 nM | 23 | 18.1 nM | 0.41 nM | – | – | – | – | – | – |
| CC(C)(O)C#Cc1cc(-c2ccc(N3CC4CC(C3)N4Cc3ccc(OC4CC4)nc3)nc2)c2c(C#N)cnn2c1 [Embodiment 26, 4-(6-(6-((6-Cyclopropoxypyridin-3-yl)methyl)-3,6-diazabicyclo[3.1.1]heptan-3-yl)pyridin-3-yl)-6-(3-hydroxy-3-methylbut-1-yn-1-yl)pyrazolo[1,5-a]pyridine-3-carbonitrile] | – | – | – | 19 nM | – | – | – | – | – | – | – |
| COc1ccc(CN2C3CC2CN(c2ccc(-c4cc(OCC5(C#N)CC5)cn5ncc(C#N)c45)cn2)C3)cn1 [Embodiment 27, 6-((1-Cyanocyclopropyl)methoxy)-4-(6-(6-((6-methoxypyridin-3-yl)methyl)-3,6-diazabicyclo[3.1.1]heptan-3-yl)pyridin-3-yl)pyrazolo[1,5-a]pyridine-3-carbonitrile] | 15.9 nM | 88 nM | 280 | – | 0.32 nM | – | – | – | – | – | – |
| COc1ccc(CN2C3CC2CN(c2ccc(-c4cc(N5CC6(C5)CC(C)(O)C6)cn5ncc(C#N)c45)cn2)C3)cn1 [Embodiment 32, 6-(6-Hydroxy-6-methyl-2-azaspiro[3.3]heptan-2-yl)-4-(6-(6-((6-methoxypyridin-3-yl)methyl)-3,6-diazabicyclo[3.1.1]heptan-3-yl)pyridin-3-yl)pyrazolo[1,5-a]pyridine-3-carbonitrile] | – | 1.8 nM | 4 | 2.07 nM | 0.49 nM | – | – | – | – | – | – |
| COc1ccc(CN2C3CC2CN(c2ccc(-c4cc(OCC5(C#N)CCC5)cn5ncc(C#N)c45)cn2)C3)cn1 [Embodiment 36, 6-((1-Cyanocyclobutyl)methoxy)-4-(6-(6-((6-methoxypyridin-3-yl)methyl)-3,6-diazabicyclo[3.1.1]heptan-3-yl)pyridin-3-yl)pyrazolo[1,5-a]pyridine-3-carbonitrile] | – | 213 nM | 257 | – | 0.83 nM | 3.8 h | 1490 ng/mL | 6210 ng·h/mL | 6220 ng·h/mL | 2.19 h | 0.5 h |
| [2H]C([2H])([2H])Oc1ccc(CN2C3CC2CN(c2ccc(-c4cc(N5CC(C(C)(C)O)C5)cn5ncc(C#N)c45)cn2)C3)cn1 [Embodiment 41, 6-(3-(2-Hydroxypropan-2-yl)azetidin-1-yl)-4-(6-(6-((6-(methoxy-d3)pyridin-3-yl)methyl)-3,6-diazabicyclo[3.1.1]heptan-3-yl)pyridin-3-yl)pyrazolo[1,5-a]pyridine-3-carbonitrile] | – | 11 nM | 27 | 9.45 nM | 0.4 nM | – | – | – | – | – | – |
| COc1ccc(CN2C3CC2CN(c2ccc(-c4cc(OCC56CC(O)(C5)C6)cn5ncc(C#N)c45)cn2)C3)cn1 [Embodiment 47, 6-((3-Hydroxybicyclo[1.1.1]pentan-1-yl)methoxy)-4-(6-(6-((6-methoxypyridin-3-yl)methyl)-3,6-diazabicyclo[3.1.1]heptan-3-yl)pyridin-3-yl)pyrazolo[1,5-a]pyridine-3-carbonitrile] | – | 176 nM | 438 | 13.3 nM | 0.4 nM | – | – | – | – | – | – |
| COc1ccc(CN2C3CC2CN(c2ccc(-c4cc(C#CCC(C)(C)O)cn5ncc(C#N)c45)cn2)C3)cn1 [Embodiment 48, 6-(4-Hydroxy-4-methylpent-1-yn-1-yl)-4-(6-(6-((6-methoxypyridin-3-yl)methyl)-3,6-diazabicyclo[3.1.1]heptan-3-yl)pyridin-3-yl)pyrazolo[1,5-a]pyridine-3-carbonitrile] | – | 13 nM | 30 | 19.6 nM | 0.42 nM | – | – | – | – | – | – |
| COc1ccc(CN2C3CC2CN(c2ccc(-c4cc(OCC5CCS(=N)(=O)CC5)cn5ncc(C#N)c45)cn2)C3)cn1 (centres unmarked) [Embodiment 54, 6-((1-Imino-1-hydroxyhexahydro-1l6-thiopyran-4-yl)methoxy)-4-(6-(6-((6-methoxypyridin-3-yl)methyl)-3,6-diazabicyclo[3.1.1]heptan-3-yl)pyridin-3-yl)pyrazolo[1,5-a]pyridine-3-carbonitrile] | – | 9 nM | 26 | 9 nM | 0.34 nM | – | – | – | – | – | – |
| COCC(C)(O)C#Cc1cc(-c2ccc(N3CC4CC(C3)N4Cc3cnc(OC)c(F)c3)nc2)c2c(C#N)cnn2c1 (centres unmarked) [Embodiment 61, 4-(6-(6-((5-Fluoro-6-methoxypyridin-3-yl)methyl)-3,6-diazabicyclo[3.1.1]heptan-3-yl)pyridin-3-yl)-6-(3-hydroxy-4-methoxy-3-methylbut-1-yn-1-yl)pyrazolo[1,5-a]pyridine-3-carbonitrile] | 16.8 nM | 11.2 nM | 32 | – | 0.35 nM | – | – | – | – | – | – |
| CC1(NC(=O)c2ncccc2Cl)CCN(c2ccc(-c3cc(OCC4(N)CC4)cn4ncc(C#N)c34)cn2)CC1 [Embodiment 91, N-(1-(5-(6-((1-aminocyclopropyl)methoxy)-3-cyanopyrazolo[1,5-a]pyridin-4-yl)pyridin-2-yl)-4-methylpiperidin-4-yl)-3-chloropicolinamide] | – | 204 nM | 133 | 29.6 nM | 1.54 nM | – | – | – | – | – | – |
